The record followed here is patent US20250380697A1, “ISOXAZOLINE DERIVATIVE COMPOUND AND INSECTICIDAL COMPOSITION COMPRISING SAME” (KYUNG NONG CORPORATION, priority 2022, published 2025).

Common to all, as to format: in vivo
Assay [1] relates to Frankliniella occidentalis. The assay is described as follows: Pesticidal activity against Frankliniella occidentalis, spray method. The following applies: 48 h, read-out: mortality rate, Frankliniella occidentalis. An outline of the steps: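 Ten F. occidentalis adults per dish sprayed with compound at 100 ppm in water/acetone 50,000 mg/L/Triton X-100 100 mg/L, then given a soybean cotyledon. Held at 25±1 °C, 50-60% RH, 16:8 h light:dark; live adults counted 48 h after inoculation to give mortality.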

The subject of the next assay is Spodoptera frugiperda. As to the kind of experiment: Pesticidal activity against Spodoptera frugiperda, leaf-dipping method. Particulars: counted 24, 48, 72 hours, time not given, read-out: mortality rate, Spodoptera frugiperda. As to the method:
Cabbage (Daiya) leaves were cut into pieces with a diameter of 5.8 cm, dipped in the pesticide composition where the compound of Synthesis Example 2 was diluted (the solvent=distilled water+acetone 50,000 mg/L+Triton X-100 100 mg/L) for 30 seconds, and sufficiently shade-dried. Then, the shade-dried cabbage leaves were placed in a petri dish (8.8 cm in diameter) covered with filter paper and repeatedly inoculated 3-5 times with the second to the third instar larvae of Spodoptera frugiperda, 10 larvae per inoculation. In particular, the Spodoptera frugiperda larvae used were those which were provided by Chung Buk University (Korea) and bred indoors for multiple generations. Then, the Spodoptera frugiperda larvae were stored under the conditions of 16 hours of light and 8 hours of dark, 25±1° C. and 50-60% relative humidity, and the number of live Spodoptera frugiperda larvae was counted 24, 48, and 72 hours after the inoculation. Thereafter, the larvae mortality rate was calculated in the same manner as in Test Example 1 above.

A further assay concerns Phaedon brassicae. The assay is described as follows: Pesticidal activity against Phaedon brassicae, leaf-dipping method. Particulars: counted 24, 48, 72 hours, time not given, read-out: mortality rate, Phaedon brassicae. As for the experimental part:
Cabbage (Daiya) leaves were cut into pieces with a diameter of 5.8 cm, dipped in the pesticide composition where the compound of Synthesis Example 2 was diluted (the solvent=distilled water+acetone 50,000 mg/L+Triton X-100 100 mg/L) for 30 seconds, and sufficiently shade-dried. Then, the shade-dried cabbage leaves were is placed in a petri dish (8.8 cm in diameter) covered with filter paper and repeatedly inoculated 3-5 times with the larvae of Phaedon brassicae, 10 larvae per inoculation. In particular, the Phaedon brassicae larvae used were those which were bred in the Andong National University (Korea) for multiple generations.
After the inoculation, the Phaedon brassicae larvae were stored under the conditions of 16 hours of light and 8 hours of dark, 25±1° C. and 50-60% relative humidity, and the number of live Phaedon brassicae larvae was counted 24, 48, and 72 hours after the inoculation. Thereafter, the larvae mortality rate was calculated in the same manner as in Test Example 1 above.

Another assay relates to Spodoptera litura. As to the kind of experiment: Pesticidal activity against Spodoptera litura, leaf-dipping method. Particulars: 48 h, read-out: mortality rate, Spodoptera litura.

In general, mortality refers to the percentage killed.

Take `Cc1cc(C2=NOC(c3cc(Cl)cc(C(F)(F)F)c3)(C(F)(F)F)C2)ccc1C(=O)NC(=O)C1CC1` (racemic) [Synthesis Example 2]: in assay [1], the mortality at 1 ppm stood at 100%, the mortality at 5 ppm came out at 100% and the mortality at 10 ppm was found to be 100%. In the assay with Spodoptera frugiperda, the mortality at 0.1 ppm worked out at 100%, the mortality at 1 ppm was determined as 100% and the mortality at 10 ppm was determined as 100%. Also, in the assay with Phaedon brassicae, the mortality at 1 ppm turned out to be 100%, the mortality at 3 ppm amounted to 100% and the mortality at 10 ppm stood at 100%. Besides, in the assay on Spodoptera litura, the mortality at 0.1 ppm worked out at 100%, the mortality at 1 ppm came out at 100% and the mortality at 10 ppm was 100%.

Take `CON=CNC(=O)c1ccc(C2=NOC(c3cc(Cl)cc(Cl)c3)(C(F)(F)F)C2)cc1C` (stereo not drawn) [Comparative Example 1, fluxametamide]: in assay [1], the mortality at 1 ppm worked out at 7%, the mortality at 5 ppm amounted to 13% and the mortality at 10 ppm stood at 50%. Besides, in the assay on Spodoptera frugiperda, the mortality at 0.1 ppm came to 100%, the mortality at 1 ppm was determined as 100% and the mortality at 10 ppm turned out to be 100%. Further, in the assay on Phaedon brassicae, the mortality at 1 ppm was 100%, the mortality at 3 ppm stood at 100% and the mortality at 10 ppm came to 100%. Besides, in the assay on Spodoptera litura, the mortality at 0.1 ppm amounted to 90%, the mortality at 1 ppm was 100% and the mortality at 10 ppm worked out at 100%.
